# Read-outs that look alike come from different tables or passages of the source.
# Experiments:
# [1] = tested on: MCF-7 cell line; assay: MTT antiproliferative assay, MCF-7; type: cell-based, human; settings: for IC50: Homo sapiens, MCF7; for Selective Index MCF-7: SI = IC50 of MCF-10A/IC50 of MCF-7
# Experimental: (§1) The compounds were studied for antiproliferative activity by standard MTT dye-reduction assay. Cell cultures from MCF-10A, MCF-7 and MDAMB-231 cell lines were incubated for 72 h in the presence of the tested substances in a wide range of concentrations. At the MCF-10A and MDA-MB-231 cell lines, compound 4 was applied in the range from 0.5 to 100 µg/mL, and all others from 4 to 1000 µg/mL.
# The MCF-7 cell line was treated with compounds 2, 3 and 4 at concentrations from 0.5 to 100 µg/mL, and all others from 4 to 1000 µg/mL. The antiproliferative activity expressed in % relative to the negative control (untreated cells accepted as a 100% viable or 0% antiproliferative activity) was determined and shown on Figure 6.
# (§2) All breast cell lines (MCF-10A, MCF-7 and MDA-MB-231) were purchased from the American Type Culture Collection—ATCC (Manassas, VA, USA). The MCF-7 and MDA-MB-231 were cultivated in Dulbecco’s Modified Eagle’s Medium (DMEM) supplemented with 10% fetal bovine serum (FBS), 1% sodium pyruvate, 1% MEM nonessential amino acids (NEAA) without antibiotics. The nontumorigenic breast cell line (MCF-10A) was cultivated in DMEM medium (Sigma-Aldrich, St. Louis, MO, USA) supplemented with 10% FBS, 1% sodium pyruvate, 1% nonessential amino acids (NEAA), 20 ng/mL human epithelia growth factor (hEGF), 10 μg/mL insulin, and 0.5 μg/mL hydrocortisone without antibiotics. All cell lines were maintained in a humidified atmosphere with 5% CO2 at 37 °C.
# (§3) Using the standard MTT dye-reduction assay, described by Mosmann the antiproliferative activity was tested. The method is based on the metabolism of the tetrazolium salt MTT to insoluble formazan. The formazan absorption was registered using a microplate reader at λ = 540 nm. The measured absorption is an indicator of cell viability and metabolic activity. Antiproliferative activities were expressed as IC50 values (concentrations required for 50% inhibition of cell growth), calculated using nonlinear regression analysis (GraphPad Software, San Diego, CA, USA).
# [2] = tested on: MCF-7; settings: results published earlier, read-out: IC50 (MCF-7) of lead compounds A and B; cited from earlier work
# [3] = tested on: MDA-MB-231; settings: results published earlier, read-out: IC50 (MDA-MB-231) of lead compounds A and B; cited from earlier work
# [4] = 3T3 NRU phototoxicity test (irradiated); type: cell-based, mouse; settings: mouse, BALB/3T3 clone A31 cells; BALB 3T3, irradiated 2.4 J/cm2, then 24 h; read-out: CC50 of Mean ± SD, Phototoxicity
# Source text: (§4) Some organic compounds exposed to sunlight can be converted into phototoxins as a result of light-induced changes in energy state or degradation of the molecule. The estimation of phototoxicity can serve as an indicator of the photostability of the studied thienopyrimidines when irradiated with UV light and as evidence that their effect on cells is only due to the cytotoxicity and not to phototoxicity. The compounds were studied for cytotoxicity by the 3T3 Neutral Red […] (NRU) phototoxicity test based on a comparison of the cytotoxicity of a chemical when tested in the presence and absence of noncytotoxic exposure to UVA/vis light. The cells were incubated with the test substances at a variable concentration: for compound 4 from 0.5 to 100 μg/mL, and for all the rest from 15 to 4000 μg/mL for 24 h.
# (§5) The light source used was a light emitting diode (LED) matrix, an artificial solar light simulator Helios-iO, model LE-9ND55-H—5500K (SERIC Ltd., Tokyo, Japan).
# (§6) BALB/3T3 cells were cultured in 75 cm^2 tissue-culture flasks in DMEM, 10% FBS, 2 mM glutamine and antibiotics (penicillin 100 U/mL and streptomycin 100 µg/mL) at 37 °C, 5% CO2 and 90% relative humidity. Cytotoxicity/phototoxicity was assessed by validated BALB/3T3 clone A31 Neutral Red Uptake Assay (3T3 NRU test). Briefly, cells were plated in a 96-well microtiter plate at a density of 1 × 10^4 cells/100 µL/well and were incubated for 24 h. A wide concentration range of the test compounds was applied. In phototoxicity tests, 96-well plates were irradiated with dose 2.4 J/cm^2 and the cells were incubated for additional 24 h. After treatment with Neutral Red medium, washing and treatment with the Ethanol/Acetic acid solution, the absorption was measured on a TECAN microplate reader (TECAN, Grödig, Austria) at wavelength 540 nm.
# (§7) Cytotoxicity/phototoxicity were expressed as CC50/PC50 values (concentrations required for 50% cytotoxicity/phototoxicity), calculated using nonlinear regression analysis (GraphPad Software, Prism 8.0.2 (263), San Diego, CA, USA). The CC50 values can be used to calculate the PIF (photoirritancy factor) for each test substance, according to the following formula:PIF = Cytotoxicity (CC50)/Phototoxicity (PC50)(6)
# [5] = tested on: MDA-MB-231 cell line; assay: MTT antiproliferative assay, MDA-MB-231; type: cell-based, human; settings: for IC50: MDA-MB-231, 72 h, MTT; for Selective Index MDA-MB-231: SI = IC50 of MCF-10A/IC50 of MDA-MB-231
# Experimental: as §1, §2, §3
# [6] = tested on: MCF-10A cell line; assay: MTT antiproliferative assay, MCF-10A; type: cell-based; settings: Homo sapiens, 72 h
# Experimental: as §1
# In order to determine antitumor activity, as a reliable model and a control we used the MCF-10A cell line (normal human mammary epithelial cells).
# as §2, §3
# [7] = 3T3 Neutral Red Uptake (NRU) cytotoxicity test; type: cell-based, mouse; settings: mouse, BALB/3T3 clone A31 cells; for CC50 at 24 h: BALB 3T3, 24 h, no irradiation, read-out: CC50 of Mean ± SD, Cytotoxicity; for IC50 at 24 h: BALB 3T3, converted from µg/mL, read-out: IC50 cytotoxicity against BALB 3T3
# [8] = tested on: EGFR; set-up: method as in PMID 31051400; settings: cited from earlier work
# [9] = tested on: KDR; set-up: method as in doi:10.1016/j.medidd.2019.100009; settings: Figure 1; cited from earlier work
# [10] = tested on: ABC efflux pumps; set-up: method as in PMID 19783433; settings: Figure 1; read-out: EC50 in the daunorubicin accumulation assay; cited from earlier work
# [11] = tested on: BALB 3T3 cells; assay: 3T3 NRU phototoxicity test (irradiated); type: cell-based, mouse; settings: CC50/PC50; PIF < 2 not phototoxic, ≥ 2 and < 5 probable phototoxicity, ≥ 5 phototoxic
# Source text: as §4, §5, §6, §7
# [12] = molecular target: Aurora B kinase; set-up: method as in PMID 21778056; settings: Figure 1; read-out: Aur B IC50; cited from earlier work
# [13] = tested on: BALB 3T3 cells; assay: 3T3 Neutral Red Uptake (NRU) cytotoxicity test; type: cell-based, mouse; settings: BALB 3T3, 15 to 4000 µg/mL, 24 h
# [14] = tested on: FGFR1; settings: Figure 1; cited from earlier work
# [15] = tested on: Tie-2; set-up: method as in PMID 19854647; settings: Figure 1; read-out: Tie-2 cells IC50; cited from earlier work
# [16] = tested on: VEGER; set-up: method as in PMID 30343204; settings: Figure 1; cited from earlier work
# [17] = MCF-7, 72 h, MTT, read-out: IC50 Antiproliferative Activity MCF-7 in µM (converted)
# [18] = MCF-7, 72 h, MTT, read-out: IC50 ± SD Antiproliferative Activity MCF-7
# [19] = Homo sapiens, read-out: IC50 Antiproliferative Activity MDA-MB-231 in µM (converted)
# [20] = Homo sapiens, read-out: IC50 ± SD Antiproliferative Activity MDA-MB-231
# [21] = read-out: IC50 Antiproliferative Activity MCF-10A (converted)
# [22] = read-out: IC50 ± SD Antiproliferative Activity MCF-10A
smiles,measurement,setting,value
CCOC(=O)c1sc2nc(CCn3c(=N)n(CCc4nc5sc(C(=O)OC)c(C)c5c(=O)[nH]4)c4ccccc43)[nH]c(=O)c2c1C [A],IC50,[1]; read-out: pCI50 in MCF-7 test (converted),0.0741 µM
same,IC50,[2],74 nM
same,IC50,[3],160 nM
"CCOC(=O)c1sc2nc(-c3cccnc3)nc(N)c2c1C [Compound 8, Ethyl 4-Amino-5-methyl-2-(pyridin-3-yl)thieno [2,3-d]Pyrimidine-6-carboxylate]",melting point,,241 to 242 °C
"CCOC(=O)c1sc2nc(Cc3ccc([N+](=O)[O-])cc3)nc(N)c2c1C [Compound 3, Ethyl 4-Amino-5-methyl-2-(4-nitrobenzyl) Thieno [2,3-d] Pyrimidine-6-carboxylate]",IC50,[1]; [17],23 µM
same,IC50,[1]; [18],8.58 ± 0.55 µg/mL
same,CC50 at 24 h,[4],578 ± 58.7 µg/mL
same,IC50,[5]; [19],250 µM
same,IC50,[5]; [20],98.2 ± 4.73 µg/mL
same,IC50,[5]; read-out: IC50 Antiproliferative Activity MDA-MB-231 in µM (converted),260 µM
same,IC50,[6]; [21],440 µM
same,IC50,[6]; [22],165 ± 8.81 µg/mL
same,CC50 at 24 h,[7],1160 ± 57.8 µg/mL
Fc1ccccc1Nc1ncnc2sc3c(c12)CCCC3 [X],EGFR/HER2 inhibitory activity IC50 (in words),[8],in the nanomolar range
CCOC(=O)c1sc2nc(CCn3c(=N)[nH]c4ccccc43)[nH]c(=O)c2c1C [B],IC50,[2],210 nM
same,IC50,[3],320 nM
Cc1cccc(NC(=O)Nc2ccc(-c3csc4ncnc(N)c34)cc2)c1 [IV],IC50,[9],3 nM
Nc1nc(SCCc2ccccc2)nc2sc3c(c12)CCCC3 [V],EC50,[10],1020 nM
"CCOC(=O)c1sc2nc(Cc3ccccc3)nc(N)c2c1C [Compound 2, Ethyl 4-Amino-2-benzyl-5-methyl-thieno[2,3-d]pyrimidine-6-carboxylate]",IC50,[1]; [17],13 µM
same,IC50,[1]; [18],4.3 ± 0.11 µg/mL
same,CC50 at 24 h,[4],632 ± 35.6 µg/mL
same,PIF (Photoirritancy factor),[11],1.9
same,IC50,[5]; [19],56 µM
same,IC50,[5]; [20],18.3 ± 1.58 µg/mL
same,Selective Index MDA-MB-231,[5],3.7
same,IC50,[6]; [21],210 µM
same,IC50,[6]; [22],67.8 ± 9.1 µg/mL
same,CC50 at 24 h,[7],1210 ± 103 µg/mL
same,melting point,,159 to 161 °C
Cc1ccccc1NC(=O)NCc1cccc(NC(=O)c2csc3ncnc(N)c23)c1 [III],IC50,[12],3.8 nM
"N.N.[Cl][Pt][Cl] [Cisplatin, reference compound]",Selective Index MCF-7,[1],2.36
same,Selective Index MDA-MB-231,[5],25
"CCOC(=O)c1sc2nc(-c3ccncc3)nc(N)c2c1C.Cl [Compound 6, Ethyl 4-Amino-5-methyl-2-(pyridin-4-yl)thieno[2,3-d]pyrimidine-6-carboxylate hydrochloride]",IC50,[1]; [17],1410 µM
same,IC50,[1]; [18],444 ± 9.2 µg/mL
same,Selective Index MCF-7,[1],0.92
same,IC50,[5]; [19],370 µM
same,IC50,[5]; [20],116 ± 9.63 µg/mL
same,Selective Index MDA-MB-231,[5],3.54
same,IC50,[6]; [21],1310 µM
same,IC50,[6]; [22],411 ± 5.1 µg/mL
same,CC50 at 24 h,[7],> 4000 µg/mL
same,IC50 at 24 h,[7],> 13 mM
same,cytotoxicity versus BALB 3T3 cells (in words),[13],not cytotoxic
same,melting point,,259 to 261 °C
"CCOC(=O)c1sc2nc(-c3cc(OC)c(OC)c(OC)c3)nc(N)c2c1C [Compound 4, Ethyl 4-Amino-5-methyl-2-(3,4,5-trimethoxyphenyl)thieno [2,3-d]Pyrimidine-6-carboxylate]",IC50,[1]; [17],5 µM
same,IC50,[1]; [18],2.01 ± 0.07 µg/mL
same,CC50 at 24 h,[4],11.8 ± 0.8 µg/mL
same,PIF (Photoirritancy factor),[11],0.7
same,IC50,[5]; [19],16 µM
same,IC50,[5]; [20],6.43 ± 0.95 µg/mL
same,IC50,[6]; [21],6.8 µM
same,IC50,[6]; [22],2.74 ± 0.13 µg/mL
same,CC50 at 24 h,[7],8.37 ± 0.6 µg/mL
Oc1cccc(Nc2ncnc3sc(-c4ccccc4)cc23)c1 [VII],IC50,[14],160 nM
Oc1cccc(Nc2ncnc3scc(-c4ccccc4)c23)c1 [VI],IC50,[14],180 nM
C=CC(=O)N1CCc2c(sc3ncnc(NC(CO)c4ccccc4)c23)C1 (stereo not shown) [IX],IC50,[8]; Figure 1,8 nM
"CCOC(=O)c1sc2nc(-c3ccccn3)nc(N)c2c1C [Compound 7, Ethyl 4-Amino-5-methyl-2-(pyridin—2-yl) Thieno[2,3-d]pyrimidine-6-carboxylate]",IC50,[1]; [18],> 1000 µg/mL
same,CC50 at 24 h,[4],2550 ± 75.1 µg/mL
same,PIF (Photoirritancy factor),[11],1.08
same,IC50,[5]; [20],> 1000 µg/mL
same,IC50,[6]; [22],> 1000 µg/mL
same,CC50 at 24 h,[7],2750 ± 64.3 µg/mL
same,IC50 at 24 h,[7],8.8 mM
same,melting point,,262 to 264 °C
Cn1cnc(-c2cccc(NC(=O)Nc3cc(C(F)(F)F)ccc3F)c2)c1-c1cc2c(N)ncnc2s1 [I],IC50,[15],70 nM
Cc1sc2ncnc(N)c2c1C(=O)Nc1ccc(NC(=O)Nc2ccccc2)cc1 [II],IC50,[12],0.2 nM
CC(=O)c1cccc(NC(=O)Nc2ccc(Nc3ncnc4sc5c(c34)CCCC5)cc2)c1 [VIII],IC50,[16],1500 nM

# Source: publication PMC9148072, “Design, Cytotoxicity and Antiproliferative Activity of 4-Amino-5-methyl-thieno[2,3-d]pyrimidine-6-carboxylates against MFC-7 and MDA-MB-231 Breast Cancer Cell Lines” (Molecules, 2022)
